Test results as given in patent US11667602B2, “Compounds and their use” (AstraZeneca AB, priority 2020, dated 2023).
Values after ≈ are worked out from the molar mass of the structure shown.

Experiments:
[1] = Human Plasma Protein Binding (Test B); assay type: in vitro ADME; conditions: fraction unbound (fu)
Protocol: Human Plasma Protein Binding (Test B)
The assay was conducted according to the Human Plasma Protein Binding Assay described in pages 167-170 of Wernevik, J. et al., “A Fully Integrated Assay Panel for Early Drug Metabolism and Pharmacokinetics Profiling”, Assay and Drug Development Technologies, 2020, 18(4), 157-179. Data are reported in Table 36 as fraction unbound (fu) (% free). Where the assay was run multiple times for the same compound, the arithmetic mean is reported.

[2] = Rat Hepatocyte Stability (Test E); assay type: in vitro ADME; conditions: rat, hepatocytes, geometric mean if run multiple times
Protocol: Rat Hepatocyte Stability (Test E)
The assay was conducted according to the Rat Hepatocyte Stability Assay described in pages 170-174 of Wernevik, J. et al., “A Fully Integrated Assay Panel for Early Drug Metabolism and Pharmacokinetics Profiling”, Assay and Drug Development Technologies, 2020, 18(4), 157-179. Data are reported in Table 36 as mean Clint(μl/min/10^6 cells). Where the assay was run multiple times for the same compound, the geometric mean is reported.

[3] = target: T1, human RXFP1 (Homo sapiens, UniProt Q9HBX9); assay: RXFP1 Hu cAMP (Test A); assay type: cell-based; design: expressed in transfected cells; host or cells: Jump-In T-REx CHO-K1 cells (ThermoFisher), induced with 10 ng/ml doxycycline for 24 h; conditions: RXFP1 Hu cAMP; for EC50: read-out: Test A EC50
T1 sequence (Q9HBX9 1-757): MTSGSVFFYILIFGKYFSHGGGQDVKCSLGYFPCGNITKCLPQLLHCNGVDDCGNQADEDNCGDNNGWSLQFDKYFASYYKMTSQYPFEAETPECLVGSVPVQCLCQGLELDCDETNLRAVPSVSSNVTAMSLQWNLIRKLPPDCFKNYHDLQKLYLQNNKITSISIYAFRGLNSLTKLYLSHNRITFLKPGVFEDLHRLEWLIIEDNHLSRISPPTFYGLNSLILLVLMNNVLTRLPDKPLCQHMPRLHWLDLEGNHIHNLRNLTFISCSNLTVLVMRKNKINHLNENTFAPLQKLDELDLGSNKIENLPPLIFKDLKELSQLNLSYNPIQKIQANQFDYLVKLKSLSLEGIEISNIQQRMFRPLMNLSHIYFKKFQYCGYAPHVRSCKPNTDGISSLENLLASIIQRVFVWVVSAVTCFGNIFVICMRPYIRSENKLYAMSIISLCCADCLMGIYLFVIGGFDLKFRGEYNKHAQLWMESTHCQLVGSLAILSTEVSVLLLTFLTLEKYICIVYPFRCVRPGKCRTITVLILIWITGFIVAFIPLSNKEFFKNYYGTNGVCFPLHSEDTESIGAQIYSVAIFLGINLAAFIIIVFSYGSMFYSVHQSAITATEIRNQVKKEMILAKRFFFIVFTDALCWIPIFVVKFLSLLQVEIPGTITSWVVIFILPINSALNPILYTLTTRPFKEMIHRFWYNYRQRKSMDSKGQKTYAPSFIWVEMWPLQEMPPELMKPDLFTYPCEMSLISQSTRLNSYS
Method in brief: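 Read-out is HTRF signal, inversely proportional to cAMP, converted to cAMP amount by standard curve. Stimulation occurred in inducible CHO-K1 cells expressing the human receptor with phosphodiesterases blocked by 0.5 mM IBMX.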

[4] = Human Liver Microsomal Stability (Test C); assay type: in vitro ADME; conditions: human, liver microsomes
Protocol: Human Liver Microsomal Stability (Test C)
The assay was conducted according to the Human Liver Microsome Stability Assay described in pages 170-174 of Wernevik, J. et al., “A Fully Integrated Assay Panel for Early Drug Metabolism and Pharmacokinetics Profiling”, Assay and Drug Development Technologies, 2020, 18(4), 157-179. Data are reported in Table 36 as CLint (μl/min/mg protein). Where the assay was run multiple times for the same compound, the arithmetic mean is reported.

[5] = Solubility (Test F); assay type: physicochemical; conditions: arithmetic mean if run multiple times
Protocol: The assay was conducted according to the Solubility Assay described in pages 164-167 of Wernevik, J. et al., “A Fully Integrated Assay Panel for Early Drug Metabolism and Pharmacokinetics Profiling”, Assay and Drug Development Technologies, 2020, 18(4), 157-179. Data are reported in Table 36 as solubility ([…]. Where the assay was run multiple times for the same compound, the arithmetic mean is reported.

Row | Compound | Test B Human Plasma Protein Binding (% free) [1] [% free] | hepatocyte CLint [2] [µL/min/1e6 cells] | Test A Sinf [3] [%] | EC50 [3] [nM] | microsomal CLint [4] [µL/min/mg] | solubility [5] [µM]
1 | COc1cc(F)c(-c2ccc(C(=O)O)cc2)cc1C(=O)N[C@H]1[C@@H](C(=O)Nc2cccc(S(=O)(=O)C(F)(F)F)c2)[C@@H]2C=C[C@H]1C2 (racemic) [Example 224, rac-2′-Fluoro-4′-methoxy-5′-(((1R,2R,3S,4S)-3-((3-((trifluoromethyl)sulfonyl)phenyl)carbamoyl)bicyclo[2.2.1]hept-5-en-2-yl)carbamoyl)-[1,1′-biphenyl]-4-carboxylic acid] | 0.16 | 19 | 92 | 190 | 6.3 | 870 (≈ 550 µg/mL)
2 | COc1cc(F)c(-c2cccc(C(=O)O)c2)cc1C(=O)N[C@H]1[C@@H](C(=O)Nc2cccc(S(=O)(=O)C(F)(F)F)c2)[C@@H]2C=C[C@H]1C2 (racemic) [Example 225, rac-2′-Fluoro-4′-methoxy-5′-(((1R,2R,3S,4S)-3-((3-((trifluoromethyl)sulfonyl)phenyl)carbamoyl)bicyclo[2.2.1]hept-5-en-2-yl)carbamoyl)-[1,1′-biphenyl]-3-carboxylic acid] | 0.10 | 22 | 98 | 240 | 6.6 | 10 (≈ 6.33 µg/mL)
3 | COc1cc(F)c(C2=CCC(C(=O)O)CC2)cc1C(=O)N[C@@H]1[C@H]2CC[C@H](C2)[C@@H]1C(=O)Nc1cccc(S(=O)(=O)C(F)(F)F)c1 (mixture of isomers) [Example 267, (RS)-2′-Fluoro-4′-methoxy-5′-(((1S,2R,3S,4R)-3-((3-((trifluoromethyl)sulfonyl)phenyl)carbamoyl)bicyclo[2.2.1]heptan-2-yl)carbamoyl)-2,3,4,5-tetrahydro-[1,1′-biphenyl]-4-carboxylic acid] | 0.39 | 14 | 93 | > 350 | 32 | 680 (≈ 434 µg/mL)
4 | COc1cc(F)c(-c2cccc(CCC(=O)O)c2)cc1C(=O)N[C@H]1[C@@H](C(=O)Nc2cccc(S(=O)(=O)C(F)(F)F)c2)[C@@H]2C=C[C@H]1C2 (racemic) [Example 282] | <0.25 | 12 | 105 | 490 | 6.2 | 48 (≈ 31.7 µg/mL)
5 | COc1cc(F)c(-c2ccc(CCC(=O)O)cc2)cc1C(=O)N[C@H]1[C@@H](C(=O)Nc2cccc(S(=O)(=O)C(F)(F)F)c2)[C@@H]2C=C[C@H]1C2 (racemic) [Example 283] | <0.29 | 15 | 87 | 220 | 12 | 220 (≈ 145 µg/mL)
6 | COc1cc(F)c(OCCCCC(=O)O)cc1C(=O)N[C@H]1[C@@H](C(=O)Nc2cccc(S(=O)(=O)C(F)(F)F)c2)[C@@H]2C=C[C@H]1C2 (racemic) [Example 451] | 0.93 | 68 | 127 | 310 | 15 | 700 (≈ 440 µg/mL)
7 | COc1cc(C#N)c(O[C@H]2C[C@@]3(C2)C[C@H](C(=O)O)C3)cc1C(=O)N[C@@H]1[C@H]2CC[C@H](C2)[C@@H]1C(=O)NCC1(C)CCC1 (single isomer, unassigned) [Example 6, (2R*,4r,6R)-6-(2-Cyano-4-methoxy-5-(((1S,2R,3S,4R)-3-(((1-methylcyclobutyl)methyl)carbamoyl)bicyclo[2.2.1]heptan-2-yl)carbamoyl)phenoxy)spiro[3.3]heptane-2-carboxylic acid] | 4.2 | 21 | 89 | 720 | 35 | 820 (≈ 451 µg/mL)
8 | COc1cc(C#N)c(O[C@H]2C[C@]3(C2)C[C@H](C(=O)O)C3)cc1C(=O)N[C@@H]1[C@H]2CC[C@H](C2)[C@@H]1C(=O)NCC1(C)CCC1 (single isomer, unassigned) [Example 7, (2R*,4r,6R)-6-(2-Cyano-4-methoxy-5-(((1S,2R,3S,4R)-3-(((1-methylcyclobutyl)methyl)carbamoyl)bicyclo[2.2.1]heptan-2-yl)carbamoyl)phenoxy)spiro[3.3]heptane-2-carboxylic acid] | 4.4 | 23 | 86 | 1300 | 23 | 820 (≈ 451 µg/mL)
9 | COc1cc(F)c(-c2ccc([C@@H]3C[C@H]3C(=O)O)nc2)cc1C(=O)N[C@@H]1[C@H]2CC[C@H](C2)[C@@H]1C(=O)Nc1cccc(S(=O)(=O)C(F)(F)F)c1 (single isomer, unassigned) [Example 261, (1R*,2R*)-2-(5-(2-Fluoro-4-methoxy-5-(((1S,2R,3S,4R)-3-((3-((trifluoromethyl)sulfonyl)phenyl)carbamoyl)bicyclo[2.2.1]heptan-2-yl)carbamoyl)phenyl)pyridin-2-yl)cyclopropane-1-carboxylic acid] | 0.89 | 84 | 107 | 130 | 57 | > 1000
10 | COc1cc(F)c(O[C@H]2CC[C@@H](C(=O)O)CC2)cc1C(=O)N[C@@H]1[C@H]2CC[C@H](C2)[C@@H]1C(=O)NC(C)C [Example 8, (1S,4s)-4-(2-Fluoro-5-(((1S,2R,3S,4R)-3-(isopropylcarbamoyl)bicyclo[2.2.1]heptan-2-yl)carbamoyl)-4-methoxyphenoxy)cyclohexane-1-carboxylic acid] | 23 | 38 | – | > 50000 | 1.7 | 980 (≈ 481 µg/mL)
11 | COc1cc(F)c(O[C@H]2CC[C@@H](C(=O)O)CC2)cc1C(=O)N[C@@H]1[C@H]2CC[C@H](C2)[C@@H]1C(=O)NC1CCCCC1 [Example 9, (1S,4s)-4-(5-(((1S,2R,3S,4R)-3-(Cyclohexylcarbamoyl)bicyclo[2.2.1]heptan-2-yl)carbamoyl)-2-fluoro-4-methoxyphenoxy)cyclohexane-1-carboxylic acid] | 11 | 67 | 100 | > 7300 | 9.2 | 27 (≈ 14.3 µg/mL)
12 | COc1cc(F)c(CC2CCC(C)(C(=O)O)CC2)cc1C(=O)NC1C2CCC(C2)C1C(=O)NCC1(C)CCC1 [Example 205, (1R,4r)-4-(2-fluoro-4-methoxy-5-(((1S,2R,3S,4R)-3-(((1-methylcyclobutyl)methyl)carbamoyl)bicyclo[2.2.1]heptan-2-yl)carbamoyl)benzyl)-1-methylcyclohexane-1-carboxylic acid] | 0.58 | 26 | – | – | 49 | 180 (≈ 97.7 µg/mL)
